Drawing on PMC10763817, “Development of dual enzyme responsive molecular AND logic gate” (Turkish Journal of Chemistry, 2021), this text covers Km for 1 compound.

The assay relates to T1, tyrosinase (mushroom tyrosinase, EC 1.14.18.1).
T1 construct: gene PPO3; commercial native enzyme from mushroom (Sigma)
Kind of assay: fluorescence of released resorufin (ex […] nm, em […] nm), Lineweaver-Burk plot. The format is biochemical. The note with it: tyrosinase 3 U/mL alone, no esterase; 10-50 μM compound 2; PBS pH 7.4, 37 °C.

Each structure is given as a SMILES string.

As usually defined, the Km is the concentration of substrate that gives half-maximal velocity. As to `CC(=O)Oc1cccc(COc2ccc3nc4ccc(=O)cc-4oc3c2)c1` [compound 2, 3-(((3-oxo-3H-phenoxazin-7-yl)oxy)methyl)phenyl acetate], the Km was 44.3 µM.
